The source of these data is ChEMBL document CHEMBL2384920, “Ester prodrugs of acyclic nucleoside thiophosphonates compared to phosphonates: synthesis, antiviral activity and decomposition study” (Eur J Med Chem, 2013).

Molecules are shown by their SMILES. Active and inactive are the calls of the source. The rule behind the calls is not given here. Some results are limits rather than exact numbers.

Data set [1] is described as follows: Cytotoxicity against mock-infected human CEM cells assessed as growth inhibition. In kind it is cell-based, CCRF-CEM.
The nature of data set [2]: Cytotoxicity against human HuH7 cells assessed as reduction of cell density. In kind it is cell-based, Huh-7.
Data set [3] in a line: Prodrug conversion assessed as snake venome phosphodiesterase-mediated thiophosphonate monoester formation at 5 mM. As to conditions: crotalus adamanteus, 5000 µM. Format: ADME.
For data set [4], the system named is Human immunodeficiency virus 1. Description: Antiviral activity against wild type HIV-1 3B infected in human CEM cells assessed as inhibition of syncytia formation after 4 days by microscopic analysis. In kind it is functional, organism-based. As to conditions: Human immunodeficiency virus 1, 3B, CCRF-CEM, 96 h.
For data set [5], the system named is Human immunodeficiency virus 2. Description: Antiviral activity against wild type HIV-2 ROD infected in human CEM cells assessed as inhibition of syncytia formation after 4 days by microscopic analysis. As to conditions: Human immunodeficiency virus 2, ISOLATE ROD, CCRF-CEM, 96 h. In kind it is functional, organism-based.
The test system of data set [6] is Human alphaherpesvirus 1. Description: Antiviral activity against thymidine kinase-deficient Human simplex virus 1 KOS infected in human HEL cells assessed as reduction of virus-induced cytopathicity measured at day 3 by microscopic analysis. In kind it is functional, organism-based. As to conditions: Human alphaherpesvirus 1, KOS, 72 h. For orientation: Protection from cytopathic effect is a common read-out in antiviral testing.

In a further data set the test system is Human alphaherpesvirus 2. Description: Antiviral activity against Human simplex virus 2 G infected in human HEL cells assessed as reduction of virus-induced cytopathicity measured at day 3 by microscopic analysis. In kind it is functional, organism-based. As to conditions: Human alphaherpesvirus 2, strain G, 72 h.
Data set [7] has as its system Vaccinia virus. Nature of the data set: Antiviral activity against Vaccinia virus infected in human HEL cells assessed as reduction of virus-induced cytopathicity measured at day 3 by microscopic analysis. In kind it is functional, organism-based. As to conditions: Orthopoxvirus vaccinia, 72 h.
The test system of the next data set is Hepatitis B virus. Nature of the data set: Antiviral activity against wild type HBV transfected in human HuH7 cells assessed as reduction of viral DNA level after 7 days by qPCR analysis. Format: functional, organism-based. As to conditions: Huh-7, 168 h.
The nature of data set [8]: Cytotoxicity against human HEL cells assessed as effect on cell morphology. Format: cell-based.
Data set [9] has as its system Human alphaherpesvirus 1. Description: Antiviral activity against Human simplex virus 1 KOS infected in human HEL cells assessed as reduction of virus-induced cytopathicity measured at day 3 by microscopic analysis. Format: functional, organism-based. As to conditions: Human alphaherpesvirus 1, KOS, 72 h.
Data set [10] in a line: Prodrug conversion assessed as snake venome phosphodiesterase-mediated PMPA formation at 5 mM. In kind it is ADME. As to conditions: crotalus adamanteus, 5000 µM.
Data set [11] in a line: Half life of the compound in presence of carboxyesterase. In kind it is physicochemical.
Data set [12] in a line: Prodrug conversion assessed as snake venome phosphodiesterase-mediated (R)-9-[2-(Thiophosphonomethoxy)propyl]adenine disodium salt formation at 5 mM. In kind it is ADME. As to conditions: crotalus adamanteus, 5000 µM.
Data set [13] can be described thus: Prodrug conversion assessed as snake venome phosphodiesterase-mediated PMEA formation at 5 mM. Format: ADME. As to conditions: crotalus adamanteus, 5000 µM.
Data set [14] deals with Vaccinia virus. Description: Antiviral activity against Vaccinia virus infected in human HEL cells assessed as reduction of virus-induced cytopathicity at 200 uM measured at day 3 by microscopic analysis. In kind it is functional, organism-based. As to conditions: Orthopoxvirus vaccinia.
A short description of data set [15]: Stability of the compound in RPMI-1640 assessed as half life of first step of hydrolysis. Format: physicochemical.
The nature of data set [16]: Stability of the compound in DMEM assessed as half life of first step of hydrolysis. In kind it is physicochemical.
Data set [17] in a line: Prodrug conversion assessed as snake venome phosphodiesterase-mediated phosphonate monoester formation at 5 mM. As to conditions: crotalus adamanteus, 5000 µM. In kind it is ADME.

With `CC(C)(C)C(=O)OCOP(=S)(COCCn1cnc2c(N)ncnc21)OCOC(=O)C(C)(C)C`, the CC50 in data set [1] is 2000 nM; in [2], greater than 25000 nM. Further, in [3], the Drug metabolism result was “Active”. The EC50 was no less than 200 nM in data set [4]; no less than 200 nM in data set [5]; 3900 nM in the data set on Human alphaherpesvirus 1 [6]; 3900 nM in the data set on Human alphaherpesvirus 2; 29000 nM in the data set on Vaccinia virus [7]; 1450 nM in the data set on Hepatitis B virus. In addition, the EC50 with Human alphaherpesvirus 1 [9] turned out to be 3900 nM. The MCC in data set [8] was greater than 50 µM.
As for `CC(C)OC(=O)OCOP(=S)(CO[C@H](C)Cn1cnc2c(N)ncnc21)OCOC(=O)OC(C)C`, the CC50 in data set [1] and in data set [2] was greater than 25000 nM in each case. Also, in data set [3], the Drug metabolism result is listed as “Active”. Further, the EC50 was 92 nM in data set [4]; 130 nM in [5]; greater than 50000 nM with Human alphaherpesvirus 1 [6]; greater than 50000 nM with Human alphaherpesvirus 2; greater than 50000 nM in the data set on Vaccinia virus [7]; 1140 nM in the data set on Hepatitis B virus. The concentration for a half-maximal effect (EC50) with Human alphaherpesvirus 1 [9] was greater than 50000 nM. Further, in data set [8], the MCC was greater than 50 µM.
`CC(C)OC(=O)OCOP(=O)([O-])CO[C@H](C)Cn1cnc2c(N)ncnc21.[Na+]`: the Drug metabolism entry in data set [10] is recorded as “Active”. Further, the half-life in [11] is greater than 7 h.
For `CC(C)OC(=O)OCOP([O-])(=S)CO[C@H](C)Cn1cnc2c(N)ncnc21.[Na+]` (some centres undefined), the Drug metabolism result in data set [12] is reported as “Active”.
In the case of `CC(C)(C)C(=O)OCOP(=O)([O-])COCCn1cnc2c(N)ncnc21.[Na+]`, the Drug metabolism result in [13] is on record as “Active”.
On to `Nc1ncnc2c1ncn2CCOCP(=O)(O)O`, for which the outcome in the data set on Vaccinia virus [14] was inactive.
Still for that read-out and setting: then `Nc1ncnc2c1ncn2CCOCP(=O)(O)S` (centres undefined), with “Active”.
In the case of `Nc1nc2c(ncn2COCCO)c(=O)[nH]1` [ACYCLOVIR], the values for the EC50 in the data set with Human alphaherpesvirus 1 [6] and in the data set with Vaccinia virus [7] were 29000 nM and greater than 250000 nM, respectively. In data set [8], the MCC is greater than 250 µM.
Consider `CC(C)(C)C(=O)OCOP(=O)(COCCn1cnc2c(N)ncnc21)OCOC(=O)C(C)(C)C` [ADEFOVIR DIPIVOXIL], for which the cytotoxic concentration (CC50) was 1600 nM in data set [1] and greater than 25000 nM in data set [2]. The half-life is 1 h in data set [15], greater than 7 h in [11] and 1 h in data set [16]. Moreover, the EC50 in data set [4] was found to be 45 nM; in data set [5] it was 62 nM; in the data set on Human alphaherpesvirus 1 [6], 200 nM; with Human alphaherpesvirus 2 it was 200 nM; in the data set with Vaccinia virus [7] it was 4000 nM; with Hepatitis B virus, 830 nM. For the same compound, the EC50 in the data set with Human alphaherpesvirus 1 [9] was determined as 200 nM. Moreover, the MCC in data set [8] was greater than 50 µM. The Drug metabolism entry in data set [17] is “Active”.
With `Nc1ccn(C[C@@H](CO)OCP(=O)(O)O)c(=O)n1` [CIDOFOVIR], the MCC in data set [8] was greater than 250 µM.
As for `CC(C)OC(=O)OCOP(=O)(CO[C@H](C)Cn1cnc2c(N)ncnc21)OCOC(=O)OC(C)C` [TENOFOVIR DISOPROXIL], the CC50 in data set [1] and in [2] was greater than 25000 nM each time. Also, the half-life in data set [15] and in [16] was 1 h throughout. Moreover, the EC50 is 16 nM in [4]; 13 nM in data set [5]; 9600 nM in the data set on Human alphaherpesvirus 1 [6]; 5800 nM in the data set on Human alphaherpesvirus 2; greater than 50000 nM in the data set with Vaccinia virus [7]; 880 nM in the data set on Hepatitis B virus. Moreover, the EC50 in the data set with Human alphaherpesvirus 1 [9] stood at 5800 nM. The MCC in data set [8] was greater than 50 µM. The Drug metabolism entry in data set [17] is given as “Active”.

The CC50 is the concentration at which the toxic effect on the cells reaches its halfway point. The term EC50 denotes the concentration that produces a half-maximal response. What is called half-life is how long it takes for the measured level to halve.
